Literature values in US8545896B2, “Compositions, kits and methods for nutrition supplementation” (Chemo S. A. France, priority 2011, dated 2013).

Conditions: intake of about 1000 IU per day, all adults

C=C1CC[C@H](O)C/C1=C/C=C1\CCC[C@]2(C)[C@@H]([C@H](C)CCCC(C)C)CC[C@@H]12 [vitamin D3, cholecalciferol]
share of the population brought up to the 30 ng/ml serum range for 25-hydroxyvitamin D: at least 50%
